Laboratory results as given in patent US8912318B2, “Nucleobase-functionalized conformationally restricted nucleotides and oligonucleotides for targeting nucleic acids” (University of Idaho, priority 2009, dated 2014).
Like-named read-outs stand apart in the source and are kept apart here.

Assays:
complementary DNA = experiment: UV thermal denaturation of 13-mer fluorophore probes with complementary DNA; type: binding; conditions: B = A
mismatched DNA targets = experiment: UV thermal denaturation of 13-mer fluorophore probes with mismatched DNA targets; type: binding; conditions: for mismatch ΔTm: mismatched vs complementary duplex; for Tm / ΔTm: DNA: 3′-d(GCG TTG BGT TGC G); for ΔTm: relative to B = A
[1] = test system: dsDNA target (SEQ ID NO: 2 : SEQ ID NO: 3); experiment: UV thermal denaturation of triplexes formed by TFOs with dsDNA; type: binding; conditions: for Tm of triplex: pH 7.0 phosphate buffer, 140 mM KCl, 1.0 μM each strand; for ΔTm/mod of triplex: relative to reference DNA TFO T1, per modification
[2] = test system: dsDNA target (SEQ ID NO: 4 : SEQ ID NO: 5), B:B′ = A:T; experiment: Thermal denaturation of matched triplexes in the presence of Mg2+ ions; type: binding; conditions: A:T (match); 10 mM MgCl2
Method: (§1) Concentrations of all TFOs were determined using the extinction coefficient of 118500 L×(mol×cm)-1. 1 mL solution containing 1.0 nmol of each strand was denatured by heating and subsequently cooled to the starting temperature of the experiment in quartz optical cells with a path-length of 1.0 cm. Thermal denaturation profiles were recorded on a Cary 100 UV/VIS spectrophotometer equipped with a 12-cell Peltier temperature controller using a ramp of 0.5° C./min. Thermal denaturation temperatures (Tm) for triplex to duplex transitions were determined as the first derivative of difference thermal denaturation profiles (dA260 vs. T), which were obtained by subtracting the thermal denaturation profile of the dsDNA target (always included as one of the samples in multicell holder of UV-Vis spectrophotometer) from the raw thermal denaturation profile of the TFO+dsDNA (FIG. 13). Reported Tm-values are an average of at least two experiments within ±1.0° C.

[3] = test system: Hoogsteen mismatched dsDNA targets (SEQ ID NO: 4 : SEQ ID NO: 5), B:B′ = T:A, C:G, G:C; experiment: Thermal denaturation of Hoogsteen mismatched triplexes in the presence of Mg2+ ions; type: binding; conditions: for Tm of triplex: 10 mM MgCl2; for ΔTm: change relative to matched triplex
Method: as §1

[4] = test system: complementary or mismatched DNA targets; experiment: Steady-state fluorescence emission intensity with DNA targets; conditions: for discrimination factor Im/Imm, range: intensity of duplex with complementary DNA divided by intensity of SSP or mismatched duplexes
complementary RNA = experiment: UV thermal denaturation of 13-mer probes with complementary RNA; type: binding; conditions: B = A
mismatched RNA targets = experiment: UV thermal denaturation of 13-mer probes with mismatched RNA targets; type: binding
[5] = test system: complementary or mismatched DNA targets; experiment: Fluorescence quantum yields and extinction coefficients with DNA targets; type: physicochemical
[6] = test system: complementary or mismatched DNA targets; conditions: cited from earlier work
[7] = complementary DNA, [Na+] = 110 mM, pH 7.0, 1.0 μM each strand
[8] = vs. the C-mismatched DNA target

For “ON1: unmodified reference strand 5′-CG CAA ATA AAC GC (DNA CGCAAATAAACGC; unmodified DNA) [reference compound]”, the Tm (complementary DNA; [7]) was 48.5 °C, the “mismatch ΔTm” value (mismatched DNA targets; DNA target B = C) was −10.0 °C and the “mismatch ΔTm” value (mismatched DNA targets; DNA target B = G) was −5.0 °C. For the same compound, the “mismatch ΔTm” value (mismatched DNA targets; DNA target B = T) was −9.0 °C.
For “Y1′: TFO TTT TT^mC TBT ^mCT^mC T^mCT, B = Y′ (DNA TTTTTNTNTNTNTNT; 5-methyl-C, modified nucleotide Y', chemistry not fully specified)”, the Tm of triplex [1] was 37.5 °C, the ΔTm/mod of triplex [1] was “+8.5 °C” and the Tm of triplex [2] was 47.5 °C. For the same compound, the Tm of triplex ([3]; C:G mismatch) was 13.5 °C, the ΔTm ([3]; C:G mismatch) was −34.0 °C and the Tm of triplex ([3]; G:C mismatch) was 24.5 °C. It also gave a ΔTm ([3]; G:C mismatch) of −23.0 °C, a Tm of triplex ([3]; T:A mismatch) of 12.0 °C and a ΔTm ([3]; T:A mismatch) of −35.5 °C.
With “ON10: 5′-CG CAA CPC AAC GC (DNA CGCAACNCAACGC; listed as DNA, chemistry not fully specified)” the Tm (complementary DNA; DNA: 3′-d(GCG TTG BGT TGC G)) was 52.5 °C, the Tm (mismatched DNA targets; B = C) was 43.0 °C and the ΔTm (mismatched DNA targets; B = C) was “(−9.5) ° C”. For the same compound, the Tm (mismatched DNA targets; B = G) was 48.0 °C, the ΔTm (mismatched DNA targets; B = G) was “(−4.5) ° C” and the Tm (mismatched DNA targets; B = T) was 46.0 °C. For the same compound, the ΔTm (mismatched DNA targets; B = T) was “(−6.5) ° C” and the “discrimination factor Im/Imm, range” value [4] was 7.3-15.9.
For “ON11: 5′-CG CAA GPG AAC GC (DNA CGCAAGNGAACGC; listed as DNA, chemistry not fully specified)”, the “discrimination factor Im/Imm, range” value [4] was 8.3-41.9.
With “ON2: unmodified reference strand 5′-CG CAA CTC AAC GC (DNA CGCAACTCAACGC; DNA, backbone not given here) [reference compound]” the Tm (complementary DNA; DNA: 3′-d(GCG TTG BGT TGC G)) was 55.5 °C, the Tm (complementary DNA; [7]) was 55.5 °C and the “mismatch ΔTm” value (mismatched DNA targets; DNA target B = C) was −13.5 °C. For the same compound, the “mismatch ΔTm” value (mismatched DNA targets; DNA target B = G) was −7.0 °C, the “mismatch ΔTm” value (mismatched DNA targets; DNA target B = T) was −9.0 °C and the Tm (mismatched DNA targets; B = C) was 42.0 °C. For the same compound, the ΔTm (mismatched DNA targets; B = C) was “(−13.5) ° C”, the Tm (mismatched DNA targets; B = G) was 48.5 °C and the ΔTm (mismatched DNA targets; B = G) was “(−7.0) ° C”. The Tm (mismatched DNA targets; B = T) was 46.5 °C, the ΔTm (mismatched DNA targets; B = T) was “(−9.0) ° C” and the Tm (complementary RNA) was 51.5 °C. For the same compound, the “mismatch DTm” value (mismatched RNA targets; RNA target B = C) was −15.5 °C, the “mismatch DTm” value (mismatched RNA targets; RNA target B = G) was −3.0 °C and the “mismatch DTm” value (mismatched RNA targets; RNA target B = U) was −13.5 °C.
For “SEQ ID NO: 10: 5′-d(CGC AAC γCA ACG C (DNA CGCAACNCAACGC; γ modified nucleotide, chemistry not fully specified)”, the Tm (complementary DNA; DNA: 3′-d(GCG TTG BGT TGC G)) was 47.0 °C, the Tm (mismatched DNA targets; B = C) was 45.5 °C and the ΔTm (mismatched DNA targets; B = C) was “(−1.5) ° C”. The Tm (mismatched DNA targets; B = G) was 46.5 °C, the ΔTm (mismatched DNA targets; B = G) was “(-0.5) ° C” and the Tm (mismatched DNA targets; B = T) was 45.5 °C. For the same compound, the ΔTm (mismatched DNA targets; B = T) was “(−1.5) ° C”.
For “ON16: 5′-CG CAA TP′T AAC GC (DNA CGCAATNTAACGC; modified nucleotide P', chemistry not fully specified)”, the “discrimination factor Im/Imm, range” value [4] was 2.9-11.4.
In the case of `O=C(O)CCCc1ccc2ccc3cccc4ccc1c2c34` [pyrenebutanoic acid], the “fluorescence quantum yield ΦF” value ([5]; in MeOH, relative to 9,10-diphenylanthracene) is listed as 0.069 and the “fluorescence quantum yield ΦF, reported value” [6] is listed as 0.065.
In the case of “SEQ ID NO: 9: 5′-d(CGC AAC βCA ACG C (DNA CGCAACNCAACGC; β modified nucleotide, chemistry not fully specified)”, the Tm (complementary DNA; DNA: 3′-d(GCG TTG BGT TGC G)) is reported as 56.5 °C, the Tm (mismatched DNA targets; B = C) is reported as 43.0 °C and the ΔTm (mismatched DNA targets; B = C) is reported as “(−13.0) ° C”. The Tm (mismatched DNA targets; B = G) was 46.5 °C, the ΔTm (mismatched DNA targets; B = G) was “(−10.0) ° C” and the Tm (mismatched DNA targets; B = T) was 48.5 °C. The ΔTm (mismatched DNA targets; B = T) was “(−8.0) ° C”.
With “ON14: 5′-CG CAA CP′C AAC GC (DNA CGCAACNCAACGC; modified nucleotide P', chemistry not fully specified)” the Tm (complementary DNA; DNA: 3′-d(GCG TTG BGT TGC G)) was 51.5 °C, the Tm (mismatched DNA targets; B = C) was 40.5 °C and the ΔTm (mismatched DNA targets; B = C) was “(−11.5) ° C”. For the same compound, the Tm (mismatched DNA targets; B = G) was 44.5 °C, the ΔTm (mismatched DNA targets; B = G) was “(−7.0) ° C” and the Tm (mismatched DNA targets; B = T) was 44.5 °C. For the same compound, the ΔTm (mismatched DNA targets; B = T) was “(−7.0) ° C”, the “ΦF,m/ΦF,mm” value [5, 8] was roughly 3.2 and the “discrimination factor Im/Imm” value [4, 8] was 5.8.
For “SEQ ID NO: 11: 5′-d(CGC AAC αCA ACG C (DNA CGCAACNCAACGC; α modified nucleotide, chemistry not fully specified)”, the Tm (complementary DNA; DNA: 3′-d(GCG TTG BGT TGC G)) was 44.5 °C, the Tm (mismatched DNA targets; B = C) was 43.0 °C and the ΔTm (mismatched DNA targets; B = C) was “(−1.5) ° C”. The Tm (mismatched DNA targets; B = G) was 46.0 °C, the ΔTm (mismatched DNA targets; B = G) was “(+1.5) ° C” and the Tm (mismatched DNA targets; B = T) was 45.0 °C. The ΔTm (mismatched DNA targets; B = T) was “(+0.5) ° C”.
For “X1′: TFO TTT TT^mC TBT ^mCT^mC T^mCT, B = X′ (DNA TTTTTNTNTNTNTNT; 5-methyl-C, modified nucleotide X', chemistry not fully specified) [reference compound]”, the Tm of triplex [1] was 35.5 °C, the ΔTm/mod of triplex [1] was “+6.5 °C” and the Tm of triplex [2] was 45.0 °C. It also gave a Tm of triplex ([3]; C:G mismatch) of 15.5 °C, a ΔTm ([3]; C:G mismatch) of −29.5 °C and a Tm of triplex ([3]; G:C mismatch) of 22.5 °C. It also gave a ΔTm ([3]; G:C mismatch) of −22.5 °C, a Tm of triplex ([3]; T:A mismatch) of 10.0 °C and a ΔTm ([3]; T:A mismatch) of −35.0 °C.
In the case of “V1′: TFO TTT TT^mC TBT ^mCT^mC T^mCT, B = V′ (DNA TTTTTNTNTNTNTNT; 5-methyl-C, modified nucleotide V', chemistry not fully specified)”, the Tm of triplex [1] is reported as 37.0 °C, the ΔTm/mod of triplex [1] is reported as “+8.0 °C” and the Tm of triplex [2] is reported as 46.0 °C. The Tm of triplex ([3]; C:G mismatch) was 14.5 °C, the ΔTm ([3]; C:G mismatch) was −31.5 °C and the Tm of triplex ([3]; G:C mismatch) was 25.5 °C. For the same compound, the ΔTm ([3]; G:C mismatch) was −20.5 °C, the Tm of triplex ([3]; T:A mismatch) was 11.0 °C and the ΔTm ([3]; T:A mismatch) was −36.0 °C.
For “ON13: 5′-CG CAA AP′A AAC GC (DNA CGCAAANAAACGC; modified nucleotide P', chemistry not fully specified)”, the “discrimination factor Im/Imm, range” value [4] was 3.4-14.1.
In the case of `O=C(NCC#Cc1cn([C@H]2C[C@H](O)[C@@H](CO)O2)c(=O)[nH]c1=O)c1ccc2ccc3cccc4ccc1c2c34` [P″, 5-[3-(1-pyrenecarboxamido)propynyl]-2′-deoxyuridine], the “Fluorescence quantum yield (φF)” value ([5]; DNA target B = A, T = 5° C.) is reported as 0.33-0.58.
For `c1ccc(-c2c3ccccc3c(-c3ccccc3)c3ccccc23)cc1` [9,10-diphenylanthracene], the “fluorescence quantum yield ΦF” value [6] is listed as 0.95.
